{"source": "patent US5807688A", "about": "(priority 1995, dated 1998)", "key": {"[1]": {"test_system": "catalytic monoclonal antibody DF8-D5 (IgG1), elicited to phosphonamidate ester hapten (7.2), hybridoma ECACC 96042612", "type": "biochemical, mouse", "conditions": "for Km / kcat / kcat/Km / kcat/kun: pH 6.5"}, "[2]": {"test_system": "antibody NPN43C9, elicited to phosphonamidate hapten (9.11)", "set-up": "kcat/Km: unit not given here", "conditions": "cited from earlier work; for Kd: read-out: Kd or Ki"}, "[3]": {"test_system": "monoclonal antibody EA11-D7", "type": "binding, mouse", "conditions": "read-out: I50"}, "[4]": {"test_system": "monoclonal antibody AB9-16H6 (IgG1), Appendix line 3, elicited to TSA (7.4)", "type": "binding, mouse", "conditions": "inhibition elisa; read-out: aK (ELISA) (converted)"}, "[5]": {"test_system": "monoclonal antibody CC11-4B4 (IgG1), Appendix line 1, elicited to TSA (7.4)", "type": "binding, mouse", "conditions": "inhibition elisa; read-out: aK (ELISA) (converted)"}, "[6]": {"test_system": "monoclonal antibody DG10-8G7 (IgG1), Appendix line 4, elicited to TSA (7.4)", "type": "binding, mouse", "conditions": "inhibition elisa; read-out: aK (ELISA)"}, "[7]": {"test_system": "monoclonal antibody AC7-4A10 (IgG1), Appendix line 8, elicited to TSA (7.4)", "type": "binding, mouse", "conditions": "inhibition elisa; read-out: aK (ELISA) (converted)"}, "[8]": {"test_system": "monoclonal antibody EA11-D7 (IgG1), Appendix line 32, elicited to TSA (7.2)", "type": "binding, mouse"}, "[9]": {"target": "monoclonal antibody CF6 (IgG1), Appendix line 13, elicited to TSA (7.2)", "type": "binding, mouse"}, "[10]": {"test_system": "monoclonal antibody CF7 (IgG2a), Appendix line 14, elicited to TSA (7.2)", "type": "binding, mouse"}, "[11]": {"test_system": "monoclonal antibody 49.AG.659.12", "conditions": "cited from earlier work"}, "[12]": {"test_system": "JAR human choriocarcinoma cell line", "conditions": "cited from earlier work"}, "[13]": {"target": "monoclonal antibody 6D9, raised to phosphonate haptens (2.53) and (2.54)", "conditions": "cited from earlier work"}, "[14]": {"test_system": "chorismate mutase (EC 5.4.99.5), E. coli enzyme", "conditions": "cited from earlier work"}, "[15]": {"conditions": "mouse, in vivo, ip, 0.5 h; cited from earlier work"}, "[16]": {"target": "carboxypeptidase G2 (CPG2) (Pseudomonas sp., UniProt P06621)", "sequence (P06621 23-415)": "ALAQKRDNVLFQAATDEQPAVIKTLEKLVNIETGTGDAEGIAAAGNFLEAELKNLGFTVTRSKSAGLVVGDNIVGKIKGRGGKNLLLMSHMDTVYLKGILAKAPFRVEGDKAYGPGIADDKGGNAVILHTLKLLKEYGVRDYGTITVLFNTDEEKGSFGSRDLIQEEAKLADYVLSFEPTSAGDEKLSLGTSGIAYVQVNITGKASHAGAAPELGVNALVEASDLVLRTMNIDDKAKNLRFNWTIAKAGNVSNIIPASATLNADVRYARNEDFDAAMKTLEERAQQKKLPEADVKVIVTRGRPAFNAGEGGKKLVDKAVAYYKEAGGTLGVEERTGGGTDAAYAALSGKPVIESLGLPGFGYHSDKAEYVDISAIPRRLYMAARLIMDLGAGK", "conditions": "cited from earlier work"}}, "note": "“And” between values parts separate entries of the source, which are not always exact repeats. Equal entries are not always repeated.", "data": [{"smiles": "O=C(Nc1cc(C(=O)O)cc(C(=O)O)c1)Oc1ccc([N+](=O)[O-])cc1", "note": "[9.9, 4-nitrophenyl N-(3,5-dicarboxyphenyl)carbamate]", "values": [{"measurement": "Km", "setting": "[1]", "value": 120, "unit": "µM"}, {"measurement": "kcat", "setting": "[1]", "value": 0.3, "unit": "s⁻¹"}, {"measurement": "kcat/Km", "setting": "[1]", "value": "0.15 E6"}, {"measurement": "kcat/kun", "setting": "[1]", "value": 300}]}, {"smiles": "Cc1ccc(OC(=O)Cc2ccccc2)cc1", "note": "[Me]", "values": [{"measurement": "Km", "setting": "[2]", "value": "~3000", "unit": "µM"}, {"measurement": "kcat", "setting": "[2]", "value": "0.15 ± 0.03", "unit": "s⁻¹"}, {"measurement": "kcat/Km", "setting": "[2]", "value": 1.01}]}, {"smiles": "CCOP(=O)(O)Cc1ccc([N+](=O)[O-])cc1", "note": "[9.8]", "values": [{"measurement": "IC50", "setting": "[3]", "value": 30, "unit": "nM"}]}, {"smiles": "CC(=O)c1ccc(OC(=O)Cc2ccccc2)cc1", "note": "[CH3 CO]", "values": [{"measurement": "Km", "setting": "[2]", "value": "~3000", "unit": "µM"}, {"measurement": "kcat", "setting": "[2]", "value": "ca. 0.87 s^-1"}, {"measurement": "kcat/Km", "setting": "[2]", "value": "ca. 0.282"}]}, {"smiles": "O=C(O)CCCC(=O)Nc1ccc(CP(=O)(O)Nc2cc(C(=O)O)cc(C(=O)O)c2)cc1", "note": "[7.7, N-[(3,5-Dicarboxy)phenyl]-P-[N-(4'-carboxybutyroyl)-4-aminophenyl-methyl]phosphonamidic acid]", "values": [{"measurement": "IC50", "setting": "[4]", "value": 833, "unit": "nM"}, {"measurement": "IC50", "setting": "[5]", "value": 76.9, "unit": "nM"}, {"measurement": "IC50", "setting": "[6]", "value": 10, "unit": "nM"}, {"measurement": "IC50", "setting": "[7]", "value": 0.455, "unit": "nM"}]}, {"smiles": "O=C(Nc1cc(C(=O)O)cc(C(=O)O)c1)Oc1ccc(F)cc1", "note": "[9.13, 4-Fluorophenyl N-[(3,5-dicarboxy)phenyl]carbamate]", "values": [{"measurement": "Vmax", "setting": "[1]", "value": 1.1, "unit": "µM/min"}, {"measurement": "Km", "setting": "[1]", "value": 41, "unit": "µM"}, {"measurement": "kcat", "setting": "[1]", "value": 0.12, "unit": "s⁻¹"}, {"measurement": "kcat/Km", "setting": "[1]", "value": "0.17 E6"}, {"measurement": "kcat/kun", "setting": "[1]", "value": "4 E5"}]}, {"smiles": "CCOP(=O)(Cc1ccc(N)cc1)Nc1cc(C(=O)O)cc(C(=O)O)c1", "note": "(stereo not drawn) [7.37, Ethyl N-[(3,5-dicarboxy)phenyl]-P-(4-aminophenylmethyl)phosphonamidate]", "values": [{"measurement": "kd, mean", "setting": "[8]; biacore", "value": "2.54e-05", "unit": "s⁻¹"}, {"measurement": "Ka (BIAcore)", "setting": "[9]", "value": "2.19e+08", "unit": "M⁻¹"}, {"measurement": "ka", "setting": "[9]; biacore", "value": 56600, "unit": "M⁻¹ s⁻¹"}, {"measurement": "kd", "setting": "[9]; biacore", "value": 0.000258, "unit": "s⁻¹"}, {"measurement": "Ka (BIAcore)", "setting": "[10]", "value": "no binding"}]}, {"smiles": "CC(C)[C@@H](N)C(=O)OC[C@H]1O[C@@H](n2cc(F)c(=O)[nH]c2=O)C[C@@H]1O", "note": "[9.4]", "values": [{"measurement": "Km", "setting": "[11]", "value": "215 µM and 218 µM"}, {"measurement": "kcat", "setting": "[11]", "value": 0.0005, "unit": "s⁻¹"}]}, {"smiles": "CS(=O)(=O)OCCN(CCCl)c1ccc(C(=O)O)cc1", "note": "[3.16]", "values": [{"measurement": "IC50", "setting": "[12]", "value": "220000 ± 10000", "unit": "nM"}]}, {"smiles": "O=C(N[C@H](CO)[C@H](OP(=O)(O)Cc1ccc(NC(=O)C(F)(F)F)cc1)c1ccc([N+](=O)[O-])cc1)C(Cl)Cl", "note": "[2.54]", "values": [{"measurement": "Ki", "setting": "[13]", "value": 60, "unit": "nM"}]}, {"smiles": "COc1ccc(OC(=O)Nc2cc(C(=O)O)cc(C(=O)O)c2)cc1", "note": "[9.14, 4-methoxyphenyl N-(3,5-dicarboxyphenyl)carbamate]", "values": [{"measurement": "Km", "setting": "[1]", "value": 58, "unit": "µM"}, {"measurement": "kcat", "setting": "[1]", "value": 0.0817, "unit": "s⁻¹"}, {"measurement": "kcat/Km", "setting": "[1]", "value": "0.08 E6"}, {"measurement": "kcat/kun", "setting": "[1]", "value": "1.2 E6"}]}, {"smiles": "O=C(Cc1ccccc1)Oc1ccc([N+](=O)[O-])cc1", "note": "[NO2]", "values": [{"measurement": "Km", "setting": "[2]", "value": 53, "unit": "µM"}, {"measurement": "kcat", "setting": "[2]", "value": "ca. 25 s^-1"}, {"measurement": "kcat/Km", "setting": "[2]", "value": "ca. 470"}, {"measurement": "Kd", "setting": "[2]", "value": 1000, "unit": "nM"}]}, {"smiles": "O=Cc1ccc(OC(=O)Cc2ccccc2)cc1", "note": "[CHO]", "values": [{"measurement": "Km", "setting": "[2]", "value": 250, "unit": "µM"}, {"measurement": "kcat", "setting": "[2]", "value": "1.0 ± 0.1", "unit": "s⁻¹"}, {"measurement": "kcat/Km", "setting": "[2]", "value": 4.1}, {"measurement": "Kd", "setting": "[2]", "value": "90000 ± 10000", "unit": "nM"}]}, {"smiles": "C=C(O[C@@H]1C=C(C(=O)O)C=C[C@H]1O)C(=O)O", "note": "[chorismate, (-)-Chorismic acid]", "values": [{"measurement": "Km", "setting": "[14]", "value": 15, "unit": "µM"}]}, {"smiles": "O=C(Cc1ccccc1)Oc1ccc(Cl)cc1", "note": "[Cl]", "values": [{"measurement": "Km", "setting": "[2]", "value": 720, "unit": "µM"}, {"measurement": "kcat", "setting": "[2]", "value": "1.7 ± 0.2", "unit": "s⁻¹"}, {"measurement": "kcat/Km", "setting": "[2]", "value": 0.049}, {"measurement": "Kd", "setting": "[2]", "value": "180000 ± 40000", "unit": "nM"}]}, {"smiles": "CCOP(=O)(Cc1ccc(NC(=O)CCCC(=O)O)cc1)Nc1cc(C(=O)O)cc(C(=O)O)c1", "note": "(stereo not drawn) [7.6, Ethyl N-[(3,5-dicarboxy)phenyl]-P-[N-(4'-carboxybutyroyl)-4-aminophenylmethyl]phosphonamidate]", "values": [{"measurement": "Ki", "setting": "[1]", "value": "25 nM and 40 nM"}, {"measurement": "Kd", "setting": "[8]", "value": "< 4", "unit": "nM"}]}, {"smiles": "O=C(Nc1cc(C(=O)O)cc(C(=O)O)c1)Oc1ccc(Br)cc1", "note": "[9.12, 4-bromophenyl N-(3,5-dicarboxyphenyl)carbamate]", "values": [{"measurement": "Km", "setting": "[1]", "value": 80, "unit": "µM"}, {"measurement": "kcat", "setting": "[1]", "value": 0.1, "unit": "s⁻¹"}, {"measurement": "kcat/Km", "setting": "[1]", "value": "0.075 E6"}, {"measurement": "kcat/kun", "setting": "[1]", "value": "1 E5"}]}, {"smiles": "O=C(O)CC[C@H](NC(=O)c1ccc(N(CCCl)CCCl)cc1)C(=O)O", "note": "[3.4, para-[bis(2-chloroethyl)amino]benzoyl-Lglutamic acid]", "values": [{"measurement": "mean concentration, Gut", "setting": "[15]", "value": 12.3}, {"measurement": "mean concentration, Kidney", "setting": "[15]", "value": 2.9}, {"measurement": "mean concentration, Liver", "setting": "[15]", "value": 22.0}, {"measurement": "mean concentration, Lung", "setting": "[15]", "value": 0.2}, {"measurement": "mean concentration, Tumour", "setting": "[15]", "value": "< 0.05"}, {"measurement": "Km", "setting": "[16]", "value": 4.9, "unit": "µM"}]}, {"smiles": "O=C(Cc1ccc(NC(=O)C(F)(F)F)cc1)O[C@H](c1ccc([N+](=O)[O-])cc1)[C@@H](CO)NC(=O)C(Cl)Cl", "note": "[2.56]", "values": [{"measurement": "rate enhancement, kcat/kuncat", "setting": "[13]", "value": "1.8×10^3"}]}, {"smiles": "O=C(Nc1cc(C(=O)O)cc(C(=O)O)c1)Oc1ccc(N(CCCl)CCCl)cc1", "note": "[9.2]", "values": [{"measurement": "cytotoxicity of the prodrug alone", "setting": "LoVo cells", "value": "significant amount of background cytotoxicity"}]}]}
